Test: Distribution coefficient K of sucralose between ethyl acetate (light phase) and aqueous DMAHCl/NaCl solution (heavy phase)
Format: physicochemical
Conditions: about 37 g ethyl acetate
Protocol: The solutions were all clear and colorless at room temperature.
Each sample was shaken with about 37 g of ethyl acetate (EA). The mixture was allowed to settle, resulting in the formation of a heavy phase (aqueous) and a light phase (EA based). The weights of these respective phases were recorded and each phase was analysed for its sucralose content. The dry solids content of each phase was also measured by evaporation to dryness (moisture balance).
From the data presented, it is possible to calculate the distribution coefficient K for each experiment, where K is defined as: K=(Wt % Sucralose in light phase)/(Wt % sucralose in heavy phase)

OC[C@H]1O[C@H](O[C@]2(CCl)O[C@H](CCl)[C@@H](O)[C@@H]2O)[C@H](O)[C@@H](O)[C@H]1Cl [Sucralose, 4,1′,6′-trichloro-4,1′,6′-trideoxygalactosucrose]
Calculated K / Actual K = (Wt % Sucralose in light phase)/(Wt % sucralose in heavy phase) (Exp #3, feed wt % on water: DMAHCL 0.36%, NaCl 9.87%, sucralose 27.58%): 1.38 | Calculated K / Actual K = (Wt % Sucralose in light phase)/(Wt % sucralose in heavy phase) (Exp #4, feed wt % on water: DMAHCL 0.41%, NaCl 2.10%, sucralose 27.06%): 0.93 | Calculated K / Actual K = (Wt % Sucralose in light phase)/(Wt % sucralose in heavy phase) (Exp #5, feed wt % on water: DMAHCL 5.07%, NaCl 9.75%, sucralose 27.31%): 1.09 | Calculated K / Actual K = (Wt % Sucralose in light phase)/(Wt % sucralose in heavy phase) (Exp #8, feed wt % on water: DMAHCL 4.99%, NaCl 2.04%, sucralose 27.01%): 0.83 | Calculated K / Actual K = (Wt % Sucralose in light phase)/(Wt % sucralose in heavy phase) (Exp #9, feed wt % on water: DMAHCL 2.55%, NaCl 5.15%, sucralose 13.98%): 0.76

From patent publication US8497367B2, “Sucralose purification process” (Tate & Lyle Technology Limited, priority 2008, dated 2013)
